Data on 14 compounds can be found in patent US10065965B2, “Imidazo[1,2-B][1,2,4]triazine derivatives as antiparasitic agents” (GlaxoSmithKline Intellectual Property Development Limited, priority 2015, dated 2018).

≈ marks a conversion by molar mass, not a printed value.

Data set [1] relates to Trypanosoma cruzi. The data set can be described thus: Assay 2 Trypanosoma cruzi intracellular assay (infected Vero cells). The format is cell-based. As to conditions: 72 h, read-out: pEC50 value against Trypanosoma cruzi (converted). How it is done: Compounds were dispensed into black 384-well assay plates (Corning) by acoustic dispensing (LabCyte ECHO). For potency determinations, ten-point one in three dilution curves were generated, with a top concentration of 50 μM. Vero cells were infected overnight with T. cruzi trypomastigotes in T225 tissue culture flasks at a multiplicity of infection of 5. Next, any remaining free trypomastigotes were washed away with serum free MEM media and the infected Vero cells were harvested by trypsinisation. The infected Vero cells were then plated into 384-well plates containing the compounds to be tested, at 4000 cells per well in MEM media with 1% FCS. After 72 h incubation at 37° C. in presence of 5% CO2, the plates were fixed with 4% formaldehyde for 20 minutes at room temperature and stained with 5 μg/ml Hoechst 33342. The plates were imaged on a Perkin Elmer Operetta high-content imaging system using a 20× objective. Images were analysed using the Columbus system (Perkin Elmer). The image analysis algorithm first identified the Vero nuclei followed by demarcation of the cytoplasm and identification of intracellular amastigotes. This algorithm reported mean number of parasites per Vero cell and total number of Vero cells.

Data set [2] in a line: Assay 4 solubility assay, ChemiLuminescent Nitrogen Detection (CLND). The format is physicochemical. The conditions noted are these: phosphate buffered saline, pH 7.4, aqueous buffer, kinetic from dmso stock, pH 7.4 PBS, from 10 mM DMSO stock, 1 h at room temperature. How it is done: A 10 mM DMSO stock solution of the compound was prepared. Solvents and Buffers Organic solvents of HPLC grade were used. Ultra pure water (Milli-Q grade) was used. Buffers were prepared with ultra pure water and filtered using 0.45μ cameo filters. Aqueous Buffer Solution: Phosphate Buffer Saline (PBS) @ pH 7.4 was prepared from Sigma dry powder packs, P-3813. Each one was diluted to 1 liter with deionised water. The pH was checked before the solution was used II. Procedures. • a) DMSO concentration was measured. DMSO blanks and ondansetron and caffeine standards were added to the plate (column 12, A, B, C, & D for the blanks and E, F, G, & H for the standards). Plates were covered with foil. When the UV and CLND detectors baselines appeared to be stable, the CLND was zeroed. • b) Once DMSO concentration measurements were complete, a filtration plate was prepared from each parent plate by diluting 5 μl of the 10 mM DMSO stock solution to […] with pH7.4 PBS. • c) After the plates were prepared, they were covered with a plate lid and left to incubate for 1 h at room temperature. • d) Sample was filtered using MILLIPORE MultiScreen Solubility (MSSLBPC10) Filtration Plates, to NUNC V well plates. The filter plate was removed and the NUNC plate was sealed with a power seal plate seal. • e) HPLC/CLND instruments were set up and left to equilibrate. Mobile phases (MeOH:H2O 1:1, flow rate: 0.2 ml/min, sensitivity z10, Gain High). The samples were run. • f) The assay curve fit was done by linear regression and solubility values were reported in μM.

The test system of data set [3] is Trypanosoma cruzi. Put plainly: Assay 6 Trypanosoma cruzi intracellular assay (infected H9C2 cells). As to conditions: H9c2, in Rattus norvegicus, 72 h, infected H9C2 rat cardiomyocytes, read-out: pEC50 value against Trypanosoma cruzi (converted). It counts as cell-based. How it is done:
Compounds were dispensed into black 384-well assay plates (Greiner) by acoustic dispensing (LabCyte ECHO). For potency determinations, eleven-point, one in three dilution curves were generated, with a top concentration of 50 μM. H9C2 rat cardiomyocytes cells were dispensed in T225 tissue culture flasks and after 4 hours they were infected during 18 hours with T. cruzi trypomastigotes in the same T225 tissue culture flasks at a multiplicity of infection of 1. Next, any remaining free trypomastigotes were washed away with PBS and the infected H9C2 cells were harvested by trypsinisation. The infected H9C2 cells were then plated into 384-well plates containing the compounds to be tested, at 2500 cells per well in DMEM media with 2% FBS, 1% Penicillin/Streptomocin, 2 mM L-Glutamine, 1 mM Na Pyruvate and 25 mM HEPES. After 72 h incubation at 37° C. in presence of 5% CO2, the plates were fixed and stained with 4% formaldehyde and 2 μM Draq5 for 3 hours at room temperature. The plates were imaged on a Perkin Elmer Opera high-content imaging system using a 20× air objective. Images were analysed using the Acapella building blocks system (Perkin Elmer). The image analysis algorithm first identified the H9C2 nuclei followed by demarcation of the cytoplasm and identification of intracellular amastigotes. This algorithm reported mean number of parasites per H9C2 cell, the percentage of infected H9C2 cells and the total number of H9C2 cells.

Data set [4] in a line: Assay 1 intramacrophage Leishmania donovani assay, THP-1 cell count (cytotoxicity readout). As to conditions: human, minimum threshold 4.3, read-out: cytotoxicity against THP-1 cells, pEC50 value (converted). It counts as cell-based. As for the experimental part: (§1) The intramacrophage Leishmania assay was performed using a modified version of the method described in De Rycker et al. (Antimicrob Agents Chemother. 2013 July; 57(7):2913-22. Comparison of a high-throughput high-content intracellular Leishmania donovani assay with an axenic amastigote assay. De Rycker M, Hallyburton I, Thomas J, Campbell L, Wyllie S, Joshi D, Cameron S, Gilbert I H, Wyatt P G, Frearson J A, Fairlamb A H, Gray D W.). Procedure: 350 nl of compound was pre-dispensed into 384 well sterile intermediary plates. For single point screening, amphotericin B was added to all wells of column 24 as a positive control (final concentration 2 μM) and DMSO to column 23. For potency determinations, ten-point, one in three dilution curves were created with the highest concentration being 50 μM and on each plate a control curve of amphotericin B was included. Controls were as follows: columns 11 and 12: DMSO, columns 23 and 24: amphotericin B (final concentration 2 μM). To the intermediary plates, 35 μl of THP-1 media was added and plates were shaken for >5 min to ensure complete mixing. THP-1 cells (8,000 per well, 50 μl) were plated into black clear-bottom 384 well plates (Corning) in presence of 20 nM PMA. After 20 min at RT, the plates were incubated at 37° C. under 5% CO2 in a humidified incubator for 75 h. The cells were then washed with […] sterile phosphate buffered saline (PBS) supplemented with 1 mM CaCl2, 0.5 mM MgCl2, 0.1% (w/v) bovine serum albumin (PBS-A) and amastigotes were added to all wells at a multiplicity of infection of 5 (40,000 amastigotes per well). After 40 min at RT, plates were returned to the incubator. Amastigotes were incubated in the presence of THP-1 macrophages for 16 h. Any remaining extracellular amastigotes were subsequently removed with an overflow wash of 1 mL PBS-A per well (wash buffer is being aspirated from the top of the well as it is being dispensed) followed by addition of 25 μl of the compound pre-dilutions using a Fluidx Ipette-pro pipetting station. The final dilution of each compound was 200-fold. Plates were incubated for 96 h and then washed (250 μl PBS-A) and fixed (4% (v/v) formaldehyde-PBS, 30 min, RT). After fixation, the wells were washed with 250 μl PBS, stained (10 μg/mL DAPI, 0.4 μg mL-1 HCS Cellmask Deep Red in PBS+0.1% (v/v) Triton X-100, 30 min, RT) and washed with 250 μl PBS. Finally, PBS+0.05% (v/v) thimerosal was added to the wells, the plates were sealed and imaged on a high-content microscope (GE IN Cell 2000) using a 10× objective. Image analysis was carried out with GE IN Cell Analyzer 1000 Workstation using the “Multi Target Analysis” module. Settings for segmentation were as follows: nuclei: minimum area: 142.384 μm2, sensitivity: 81, method: top-hat; cells: characteristic area: 2500 μm2, sensitivity: 60, method: multiscale top-hat; organelles (amastigotes): granule size 1-3, 3 scales, sensitivity: 90, detection in entire cell. For each well, i) THP-1 cell count (cytotoxicity readout) and ii) average number of amastigotes per cell (potency readout) were calculated, both in terms of pEC50 values.

In data set [5] the test system is Leishmania donovani. Put plainly: Assay 1 intramacrophage Leishmania donovani assay (potency readout). It counts as cell-based. The conditions noted are these: amastigotes in PMA-treated THP-1 macrophages, 96 h, average number of amastigotes per cell, minimum threshold 4.3, read-out: pEC50 value against Leishmania donovani (converted). As for the experimental part: as §1

Broadly, the solubility is the dissolved amount per volume that the medium holds. High values mean a readily soluble substance, low ones a poorly soluble substance. Turning to `CC1CN(c2cnc3nc(-c4cc(NC(=O)N5CCCC5)ccc4F)cn3n2)CCO1` (racemic) [Example 5, (+,−)-N-(4-fluoro-3-(2-(2-methylmorpholino)imidazo[1,2-b][1,2,4]triazin-6-yl)phenyl)pyrrolidine-1-carboxamide], the figures for the EC50 in data set [1] and in data set [3] were 20 to 251 nM and 5.01 to 631 nM, respectively. The same compound showed a solubility at 1 h in data set [2] of 10 to 83 µM (≈ 4.25 to 35.3 µg/mL).
On to `C[C@@H]1CN(c2cnc3nc(-c4cc(NC(=O)N5CCCC5)ccc4F)cn3n2)C[C@H](C)O1` (single isomer, unassigned) [Example 6], for which the EC50 in data set [1] is 20 to 251 nM; in data set [3] it was 5.01 to 631 nM. In data set [2], this compound registered a solubility at 1 h of 10 to 83 µM (≈ 4.39 to 36.5 µg/mL).
Consider `O=C(Nc1ccc(F)c(-c2cn3nc(-c4ccccc4)cnc3n2)c1)N1CCCC1` [Example 2, N-(4-fluoro-3-(2-phenylimidazo[1,2-b][1,2,4]triazin-6-yl)phenyl)pyrrolidine-1-carboxamide], for which the EC50 in data set [1] is 20 to 251 nM; in data set [3], 5.01 to 631 nM. Moreover, in data set [2], the solubility at 1 h was in the range of 10 to 83 µM (≈ 4.02 to 33.4 µg/mL).
Take `O=C(Nc1ccc(F)c(-c2cn3nccnc3n2)c1)N1CCCC1` [Example 8, N-(4-fluoro-3-(imidazo[1,2-b][1,2,4]triazin-6-yl)phenyl)pyrrolidine-1-carboxamide]: the EC50 in data set [1] was 20 to 251 nM.
`O=C(Nc1ccc(F)c(-c2cn3nc(-c4ccc(CN5CCOCC5)cc4)cnc3n2)c1)N1CCCC1` [Example 18, N-(4-fluoro-3-(2-(4-(morpholinomethyl)phenyl)imidazo[1,2-b] [1,2,4]triazin-6-yl)phenyl)pyrrolidine-1-carboxamide]: the EC50 at 96 h in data set [4] was 3980 to 15800 nM. The compound also registered a solubility at 1 h in data set [2] of 1 to 6 µM (≈ 0.502 to 3.01 µg/mL). Further, the EC50 in data set [3] was 5.01 to 631 nM.
As to `O=C(Nc1ccc(F)c(-c2cn3nc(-c4cccc(CN5CCOCC5)c4)cnc3n2)c1)N1CCCC1` [Example 19, N-(4-fluoro-3-(2-(3-(morpholinomethyl)phenyl)imidazo[1,2-b] [1,2,4]triazin-6-yl)phenyl)pyrrolidine-1-carboxamide], the EC50 at 96 h in data set [4] is 3980 to 15800 nM. In addition, the solubility at 1 h in data set [2] was 1 to 6 µM (≈ 0.502 to 3.01 µg/mL). Moreover, the EC50 in data set [3] was 5.01 to 631 nM.
`COc1ccc(CNc2cnc3nc(-c4cc(NC(=O)N5CCCC5)ccc4F)cn3n2)cc1` [Example 50, N-(4-fluoro-3-(2-((4-methoxybenzyl)amino)imidazo[1,2-b][1,2,4]triazin-6-yl)phenyl) pyrrolidine-1-carboxamide]: the EC50 at 96 h in data set [4] was 3980 to 15800 nM. In addition, in data set [3], the EC50 was 5.01 to 631 nM.
Regarding `O=C(Nc1ccc(F)c(-c2cn3nc(-c4ccc(O)cc4)cnc3n2)c1)N1CCCC1` [Example 51, N-(4-fluoro-3-(2-(4-hydroxyphenyl)imidazo [1,2-b][1,2,4]triazin-6-yl)phenyl)pyrrolidine-1-carboxamide], the EC50 at 96 h in data set [4] was 3980 to 15800 nM. Further, in data set [3], the EC50 is 5.01 to 631 nM.
As to `CCOC(=O)Nc1ccc(F)c(-c2cn3nc(N4CCOCC4)cnc3n2)c1` [Example 52, ethyl (4-fluoro-3-(2-morpholinoimidazo [1,2-b][1,2,4]triazin-6-yl)phenyl)carbamate], the EC50 in data set [5] is more than 50100 nM; in data set [3], 5.01 to 631 nM.
Turning to `COC(=O)Nc1cnc2nc(-c3cc(NC(=O)N4CCCC4)ccc3F)cn2n1` [Example 55, methyl (6-(2-fluoro-5-(pyrrolidine-1-carboxamido)phenyl)imidazo[1,2-b][1,2,4]triazin-2-yl)carbamate], the solubility at 1 h in data set [2] was 10 to 83 µM (≈ 3.99 to 33.1 µg/mL). In data set [3], the EC50 is 5.01 to 631 nM.
The like results for `O=C(Nc1ccc(F)c(-c2cn3nc(N4CCNCC4)cnc3n2)c1)N1CCCC1` [Example 56, N-(4-fluoro-3-(2-(piperazin-1-yl)imidazo [1,2-b][1,2,4]triazin-6-yl)phenyl)pyrrolidine-1-carboxamide] were, in that order, 100 to 416 µM (≈ 41 to 171 µg/mL) and 5.01 to 631 nM.
Take `CN1CCN(c2cnc3nc(-c4cc(NC(=O)N5CCCC5)ccc4F)cn3n2)CC1` [Example 57, N-(4-fluoro-3-(2-(4-methylpiperazin-1-yl)imidazo[1,2-b][1,2,4]triazin-6-yl)phenyl) pyrrolidine-1-carboxamide]: the solubility at 1 h in data set [2] lay within 100 to 416 µM (≈ 42.4 to 177 µg/mL). In data set [3], the EC50 is 5.01 to 631 nM.
In data set [2], `O=C(Nc1cnc2nc(-c3cc(NC(=O)N4CCCC4)ccc3F)cn2n1)C1CC1` [Example 58, N-(3-(2-(cyclopropane-carboxamido)imidazo [1,2-b][1,2,4]triazin-6-yl)-4-fluorophenyl) pyrrolidine-1-carboxamide] displayed a solubility at 1 h of 10 to 83 µM (≈ 4.09 to 34 µg/mL). Moreover, the EC50 in data set [3] is 5.01 to 631 nM.
With `CN1CCN(Cc2ccc(-c3cnc4nc(-c5cc(NC(=O)N6CCCC6)ccc5F)cn4n3)cc2)CC1` [Example 59, N-(4-fluoro-3-(2-(4-((4-methylpiperazin-1-yl)methyl)phenyl)imidazo [1,2-b][1,2,4]triazin-6-yl)phenyl)pyrrolidine-1-carboxamide], the EC50 at 96 h in data set [4] is 3980 to 15800 nM.
